Ki and IC50 data for 11 compounds are collected here from patent publication US8742158B2, “Protease inhibitors” (TaiMed Biologics, Inc., priority 2006, dated 2014).

Structures are written as SMILES. Like-named read-outs stand apart in the source and are kept apart here.

In the assay the target is HIV-1 Protease (Human immunodeficiency virus type 1 group M subtype B (isolate HXB2) (HIV-1), UniProt P04585). Put plainly: Enzymatic (FRET fluorometric) assay for determining the inhibition constant (Ki) of compounds targeting the HIV protease. In kind it is biochemical. The text has this:
Enzymatic Assay for Determining the Inhibition Constant (Ki) of Synthetic Compounds Targeting the HIV Protease
This is a fluorometric assay based on the cleavage by protease of a substrate carrying a donor group (EDANS) and an acceptor group (DABCYL) on each side of the cleavage site, interacting together through fluorescence resonance energy transfer (FRET) as described by Matayoshi et al. (Science 247:[…], 1990).
After calculation of Vo and Vi, the inhibition constant (Ki) of the compound is determined using the equation of Henderson:
where Vo=the enzyme's initial velocity
Vi=the enzyme velocity in the presence of the inhibitory compound,
[I]=inhibitor concentration, [S]=substrate concentration,
Km=Michaelis-Menten constant and Kiapp=apparent Ki
Graphs are traced and the Ki determined using GraphPad Prism software v. 3.0.

Where [1] appears, read: calculated Ki, read-out: KI-CALC ENZYME HIV-1 Protease.

On to `CC(C)CN([C@@H](CCCCNC(=O)[C@H](Cc1ccccc1Br)NC(=O)c1ccncc1)COP(=O)(O)O)S(=O)(=O)c1ccc(N)cc1` [EX 3, (2S,2S) phosphoric acid mono-(2-[(4-aminobenzenesulfonyl)-isobutyl-amino]-6-{3-(2-bromo-phenyl)-2-[(pyridine-4-carbonyl)-amino]-propionylamino}-hexyl)ester], for which, under setting [1], the Ki was over 300 nM.
Still for that read-out and setting: next, `COC(=O)N[C@@H](Cc1ccccc1F)C(=O)NCCCC[C@@H](COP(=O)(O)O)N(CC(C)C)S(=O)(=O)c1ccc(N)cc1` [EX 4, (1S,5S)-[1-{5-[(4-amino-benzenesulfonyl)-isobutyl-amino]-6-phosphonooxy-hexylcarbamoyl}-2-(2-fluoro-phenyl)-ethyl]-carbamic acid methyl ester]: over 300 nM; `COC(=O)N[C@@H](Cc1ccccc1Cl)C(=O)NCCCC[C@@H](COP(=O)(O)O)N(CC(C)C)S(=O)(=O)c1ccc(N)cc1` [EX 5, (1S,5S) [1-{5-[(4-amino-benzenesulfonyl)-isobutyl-amino]-6-phosphonooxy-hexylcarbamoyl}-2-(2-chloro-phenyl)-ethyl]-carbamic acid methyl ester]: 91 nM; `COC(=O)N[C@@H](Cc1ccc(Br)cc1)C(=O)NCCCC[C@@H](COP(=O)(O)O)N(CC(C)C)S(=O)(=O)c1ccc(N)cc1` [EX 6, (1S,5S) [1-{5-[(4-amino-benzenesulfonyl)-isobutyl-amino]-6-phosphonooxy-hexylcarbamoyl}-2-(4-bromo-phenyl)-ethyl]-carbamic acid methyl ester]: over 300 nM.
Take `CC(C)CN([C@H](CO)CCCCNC(=O)[C@@H](NC(=O)c1cccc(O)n1)C(c1ccccc1)c1ccccc1)S(=O)(=O)c1ccc2c(c1)OCO2` [EX 28]: where the note is “KIGRAPHIC ENZYME HIV-1 Protease, Ki determined graphically, read-out: […] ENZYME HIV-1 Protease”, the Ki was 0.47 nM.
Turning to `Cc1nn(C)c(Cl)c1S(=O)(=O)N[C@@H](Cc1ccc2ccccc2c1)C(=O)NCCCC[C@@H](CO)N(CC(C)C)S(=O)(=O)c1ccc(N)cc1` [EX 51], under setting [1], the Ki was 26.2 nM.
On the same count and under the same terms, next, `CC(C)CN([C@H](CO)CCCCNC(=O)[C@H](Cc1ccc2ccccc2c1)NS(=O)(=O)c1ccc(C#N)cc1)S(=O)(=O)c1ccc(N)cc1` [EX 53]: 37.4 nM; `CC(C)CN([C@H](CO)CCCCNC(=O)[C@H](Cc1ccc2ccccc2c1)NS(=O)(=O)c1cn(C)cn1)S(=O)(=O)c1ccc(N)cc1` [EX 54]: 11.4 nM.
As to `COC(=O)N[C@@H](Cc1ccccc1Br)C(=O)NCCCC[C@@H](COP(=O)(O)O)N(CC(C)C)S(=O)(=O)c1ccc(N)cc1` [EX. 1, (1S,5S)-[1-{5-[(4-amino-benzenesulfonyl)-isobutyl-amino]-6-phosphonooxy-hexylcarbamoyl}-2-(2-bromo-phenyl)-ethyl]-carbamic acid methyl ester], the Ki under setting [1] was over 300 nM.
Still for that read-out and setting: to `Cc1ncccc1C(=O)N[C@@H](Cc1ccccc1Br)C(=O)NCCCC[C@@H](COP(=O)(O)O)N(CC(C)C)S(=O)(=O)c1ccc(N)cc1` [EX. 2, (2S,2S) phosphoric acid mono-(2-[(4-aminobenzenesulfonyl)-isobutyl-amino]-6-{3-(2-bromo-phenyl)-2-[(2-methyl-pyridine-3-carbonyl)-amino]-propionylamino}-hexyl)ester] belongs over 300 nM.
Take `CC(=O)N[C@H](C(=O)NCCCC[C@@H](C(N)=O)N(CC(C)C)S(=O)(=O)c1ccc(N)cc1)C(c1ccccc1)c1ccccc1` [EX. 8]: the Ki under setting [1] was under 3.8 nM. For the same compound, under “read-out: IC50 ENZYME HIV-1 Protease”, the IC50 was 1.07 nM.

By IC50 is commonly meant the concentration that gives 50% inhibition.
